What all share (type): cell-based
In assay [1] the test system is HCV replicon cells (Huh-7 cells). Description: Inhibition of replicon RNA levels (3-day assay, Taqman). Particulars: Hepatitis C virus. As for the experimental part:
Replicon cells are seeded at ˜5000 cells/well in 96-well collagen I-coated Biocoat plates (Becton Dickinson). Twenty-four hrs post-seeding, inhibitors diluted in DMSO are added to replicon cells (Huh-7 cells). The final concentrations of DMSO and fetal bovine serum are 1% and 10%, respectively. SCH 503034 is serially diluted at 1:2 for a 10-point titration. To each concentration of the SCH 503034, the second inhibitor, HCV-796 or rhIFN-α2b control is titrated in. IFN-α is serially diluted at 1:3, whereas HCV RNA polymerase inhibitor, HCV-796, is serially diluted at 1:2. […] All samples are tested in triplicate. Media and inhibitors are refreshed daily for 3 days at which point the cells are washed with PBS and lysed in 1× cell lysis buffer (Ambion cat #8721). The replicon RNA level is measured using real time PCR (Taqman assay) The amplicon is located in 5B. The PCR primers are: 5B.2F, […] (SEQ ID NO:1) and 5B.2R, […] (SEQ ID NO:2). The probe sequence is FAM-labeled […] (SEQ ID NO:3). GAPDH RNA is used as an endogenous control and is amplified in the same reaction as NS5B (multiplex PCR) using primers and VIC-labeled probe recommended by the manufacturer (PE Applied Biosystem). The real-time RT-PCR reactions are run on an AB1 PRISM 7900HT Sequence Detection System using the following program: 48° C. for 30 min, 95° C. for 10 min, 40 cycles of 95° C. for 15 sec, […] for 1 min. […]

Assay [2] has as its system replicons containing HCV NS3 protease mutations T54A, A156S, A156T, V170A. Description: HCV-796 cross-resistance study, 3-day replicon assay on replicons with NS3 protease resistance mutations. Particulars: V170A vs wild type. As for the experimental part: Replicon cells are seeded at ˜5000 cells/well in 96-well collagen I-coated Biocoat plates (Becton Dickinson). Twenty-four hrs post-seeding, inhibitors diluted in DMSO are added to replicon cells (Huh-7 cells). The final concentrations of DMSO and fetal bovine serum are 1% and 10%, respectively. SCH 503034 is serially diluted at 1:2 for a 10-point titration. To each concentration of the SCH 503034, the second inhibitor, HCV-796 or rhIFN-α2b control is titrated in. IFN-α is serially diluted at 1:3, whereas HCV RNA polymerase inhibitor, HCV-796, is serially diluted at 1:2. […] All samples are tested in triplicate. Media and inhibitors are refreshed daily for 3 days at which point the cells are washed with PBS and lysed in 1× cell lysis buffer (Ambion cat #8721). The replicon RNA level is measured using real time PCR (Taqman assay) The amplicon is located in 5B. The PCR primers are: 5B.2F, ATGGACAGGCGCCCTGA (SEQ ID NO:1) and 5B.2R, […] (SEQ ID NO:2). The probe sequence is FAM-labeled CACGCCATGCGCTGCGG (SEQ ID NO:3). GAPDH RNA is used as an endogenous control and is amplified in the same reaction as NS5B (multiplex PCR) using primers and VIC-labeled probe recommended by the manufacturer (PE Applied Biosystem). […]

In assay [3] the test system is GAPDH RNA, Huh7 BB7 replicon cells. The assay is described as follows: GAPDH RNA in genotype 1b (BB7) replicon cells. The note with it: Homo sapiens, Huh-7, 72 h, read-out: GAPDH EC50. As for the experimental part: HCV genotype 1b, BB7 replicon-containing cell line is derived from a human hepatoma cell line (Huh7). A genotype 1a (H77 isolate; GenBank Accession #AF009606) is derived from replicon-containing cell line (Huh7-1a). The cell lines are cultured at 37° C. and 5% CO2 in Dulbecco's Modified Eagle Media (D-MEM; Invitrogen #11965-084) containing 10% fetal bovine serum (FBS; HyClone #SH300070) supplemented with 1% penicillin/streptomycin (Invitrogen #15140-122), 1% non-essential amino acids (Invitrogen #11140-050), 0.66 mM HEPES buffer, pH 7.55 (Invitrogen #15630-080), and 1 mg/mL G418 (Geneticin®, Invitrogen #11811-031 or #10131-027). Genotype 1a and genotype 1b replicon-containing cell lines contain approximately 1000 and 2000 RNA genome equivalents per cell, respectively, when maintained in a subconfluent monolayer in the presence of 1 mg/mL G418. For compound testing, G418 is eliminated and the FBS concentration is reduced to 2%.
Genotype 1b (BB7) and 1a (H77) cells are seeded in 96-well plates at a sub-confluent density (7000 cells/well) in medium containing 2% FBS without G418. […] The amounts of HCV, rRNA and GAPDH RNAs are quantified using the TaqMan RT-PCR assay.

Entries after “also recorded” stand apart in the source; their conditions may differ.

Consider `CNC(=O)c1c(-c2ccc(F)cc2)oc2cc(N(CCO)S(C)(=O)=O)c(C3CC3)cc12` [HCV-796, 5-cyclopropyl-2-(4-fluoro-phenyl)-6-[(2-hydroxy-ethyl)-methanesulfonyl-amino]-benzofuran-3-carboxylic acid methylamide], for which it took 30 nM to reach the 90% level in assay [1] (IC90). For the same molecule, the “Activity of HCV-796 on SCH 503034 resistant replicon cell lines” value in assay [2] was “identical to that observed against the wild-type replicon; also recorded: active”. Also, the EC50 in assay [3] was greater than 2430 nM.

As to `CC(C)(C)NC(=O)N[C@H](C(=O)N1C[C@H]2[C@@H]([C@H]1C(=O)NC(CC1CCC1)C(=O)C(N)=O)C2(C)C)C(C)(C)C` (stereo partly drawn) [SCH 503034, (1R,5S)—N-[3-amino-1-(cyclobutylmethyl)-2,3-dioxopropyl]-3-[2(S)-[[[(1,1-dimethylethyl)amino]carbonyl]amino]-3,3-dimethyl-1-oxobutyl]-6,6-dimethyl-3-azabicyclo[3.1.0]hexan-2(S)-carboxamide], the concentration for an effect of 90% (IC90) in assay [1] came out at 400 nM. Further, the 50% effective concentration (EC50) in assay [3] was greater than 3200 nM.

Values taken from patent US20070224167A1, “Novel HCV inhibitor combinations and methods” (priority 2006, published 2007).
